# Measurements reported in PubChem BioAssay AID2060620 (Molecular Pharmacology Branch, DTP, NCI, 2025).
# System: 328373-195-R-J1-PDC complex spheroids, viability % test/control
# Experiment: Anticancer human tumor 328373-195-R-J1-PDC patient-derived head and neck squamous carcinoma cell line growth inhibition [CLK]
# Conditions: for IC50: curve of first compound; for viability, T/C: stronger effect = lower value
# Procedure, shortened: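 Multi-cell-type spheroids combined patient-derived tumor cells with HUVEC endothelial cells and human mesenchymal stem cells. Paired agents were dosed in half-log steps down from about clinical Cmax, or from 10 microM where Cmax was unknown.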
# 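Further: spheroids exposed to the agents for 7 days.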
compound,measurement,setting,value
CCN1CCN(Cc2ccc(Nc3ncc(F)c(-c4cc(F)c5nc(C)n(C(C)C)c5c4)n3)nc2)CC1 + CNC(=O)c1ccc(Nc2nc(OC3CCCC3)c3c(-c4ccc5nc(C)oc5c4)c[nH]c3n2)c(OC)c1,IC50,second compound 0.0316 µM,54.9 nM
same,IC50,second compound 0.1 µM,< 3.16 nM
same,IC50,second compound 0.316 µM,< 3.16 nM
same,IC50,second compound 1 µM,< 3.16 nM
same,IC50,second compound 3.16 µM,< 3.16 nM
same,IC50,second compound 10 µM,< 3.16 nM
same,"viability, T/C","second compound 0.0316 µM, first compound 0.00316 µM",53.3%
same,"viability, T/C","second compound 0.0316 µM, first compound 0.01 µM",60.8%
same,"viability, T/C","second compound 0.0316 µM, first compound 0.0316 µM",46.3%
same,"viability, T/C","second compound 0.0316 µM, first compound 0.1 µM",48.5%
same,"viability, T/C","second compound 0.0316 µM, first compound 0.316 µM",44.6%
same,"viability, T/C","second compound 0.0316 µM, first compound 1 µM",36.1%
same,"viability, T/C","second compound 0.1 µM, first compound 0.00316 µM",12.7%
same,"viability, T/C","second compound 0.1 µM, first compound 0.01 µM",11.1%
same,"viability, T/C","second compound 0.1 µM, first compound 0.0316 µM",13.1%
same,"viability, T/C","second compound 0.1 µM, first compound 0.1 µM",13.4%
same,"viability, T/C","second compound 0.1 µM, first compound 0.316 µM",15.7%
same,"viability, T/C","second compound 0.1 µM, first compound 1 µM",19.4%
same,"viability, T/C","second compound 0.316 µM, first compound 0.00316 µM",11.2%
same,"viability, T/C","second compound 0.316 µM, first compound 0.01 µM",11.9%
same,"viability, T/C","second compound 0.316 µM, first compound 0.0316 µM",11.8%
same,"viability, T/C","second compound 0.316 µM, first compound 0.1 µM",12.6%
same,"viability, T/C","second compound 0.316 µM, first compound 0.316 µM",17.2%
same,"viability, T/C","second compound 0.316 µM, first compound 1 µM",14.6%
same,"viability, T/C","second compound 1 µM, first compound 0.00316 µM",9.58%
same,"viability, T/C","second compound 1 µM, first compound 0.01 µM",12%
same,"viability, T/C","second compound 1 µM, first compound 0.0316 µM",12.7%
same,"viability, T/C","second compound 1 µM, first compound 0.1 µM",12.3%
same,"viability, T/C","second compound 1 µM, first compound 0.316 µM",14.1%
same,"viability, T/C","second compound 1 µM, first compound 1 µM",15.2%
same,"viability, T/C","second compound 3.16 µM, first compound 0.00316 µM",12%
same,"viability, T/C","second compound 3.16 µM, first compound 0.01 µM",10.5%
same,"viability, T/C","second compound 3.16 µM, first compound 0.0316 µM",12.8%
same,"viability, T/C","second compound 3.16 µM, first compound 0.1 µM",15%
same,"viability, T/C","second compound 3.16 µM, first compound 0.316 µM",15.9%
same,"viability, T/C","second compound 3.16 µM, first compound 1 µM",16.7%
same,"viability, T/C","second compound 10 µM, first compound 0.00316 µM",14.5%
same,"viability, T/C","second compound 10 µM, first compound 0.01 µM",11.4%
same,"viability, T/C","second compound 10 µM, first compound 0.0316 µM",15.1%
same,"viability, T/C","second compound 10 µM, first compound 0.1 µM",15.1%
same,"viability, T/C","second compound 10 µM, first compound 0.316 µM",17.6%
same,"viability, T/C","second compound 10 µM, first compound 1 µM",13.1%
